Reference: PMC8102479, “Structural and mechanistic insights into the bifunctional HISN2 enzyme catalyzing the second and third steps of histidine biosynthesis in plants” (Scientific Reports, 2021)

Assays:
[1] = biological target: T1, MtHISN2 (Medicago truncatula, UniProt A0A072U2X9, Y240T); test: isothermal titration calorimetry; assay type: binding
T1 construct: gene MTR_7g084480; N-truncated at Val49 (chloroplast transit peptide removed), residues 49-283, N-terminal Ser-Asn-Ala linker left, His6-tag cleaved with TEV; E. coli BL21 Gold; both PRA-CH and PRA-PH domains
T1 sequence (A0A072U2X9 entry or part of it Y240T): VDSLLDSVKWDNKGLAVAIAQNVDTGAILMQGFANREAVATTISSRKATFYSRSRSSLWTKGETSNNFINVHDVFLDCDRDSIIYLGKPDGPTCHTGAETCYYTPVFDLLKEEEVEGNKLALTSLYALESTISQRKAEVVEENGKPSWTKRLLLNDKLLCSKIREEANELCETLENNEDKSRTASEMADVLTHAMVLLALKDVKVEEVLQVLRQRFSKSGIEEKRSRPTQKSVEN
Method: (§1) isothermal titration calorimetry on MtHISN2 | three within the PRA-PH domain (R183E, T197V, and Y240T) were tested

[2] = biological target: T2, MtHISN2 (Medicago truncatula, UniProt A0A072U2X9, T197V); test: isothermal titration calorimetry; assay type: binding
T2 construct: gene MTR_7g084480; N-truncated at Val49 (chloroplast transit peptide removed), residues 49-283, N-terminal Ser-Asn-Ala linker left, His6-tag cleaved with TEV; E. coli BL21 Gold; both PRA-CH and PRA-PH domains
T2 sequence (A0A072U2X9 entry or part of it T197V): as the sequence (A0A072U2X9 entry or part of it Y240T) above, with T149V, T192Y counted along it
Method: as §1

[3] = biological target: T3, MtHISN2 (Medicago truncatula, UniProt A0A072U2X9, R183E); test: isothermal titration calorimetry; assay type: binding
T3 construct: gene MTR_7g084480; N-truncated at Val49 (chloroplast transit peptide removed), residues 49-283, N-terminal Ser-Asn-Ala linker left, His6-tag cleaved with TEV; E. coli BL21 Gold; both PRA-CH and PRA-PH domains
T3 sequence (A0A072U2X9 entry or part of it R183E): as the sequence (A0A072U2X9 entry or part of it Y240T) above, with R135E, T192Y counted along it
Method: as §1

[4] = biological target: T4, MtHISN2 (Medicago truncatula, UniProt A0A072U2X9); test: isothermal titration calorimetry; assay type: binding
T4 construct: gene MTR_7g084480; N-truncated at Val49 (chloroplast transit peptide removed), residues 49-283, N-terminal Ser-Asn-Ala linker left, His6-tag cleaved with TEV; E. coli BL21 Gold; both PRA-CH and PRA-PH domains
T4 sequence (A0A072U2X9 entry or part of it): as the sequence (A0A072U2X9 entry or part of it Y240T) above, with T192Y counted along it

[5] = biological target: T5, MtHISN2 (Medicago truncatula, UniProt A0A072U2X9, H143E); test: isothermal titration calorimetry; assay type: binding
T5 construct: gene MTR_7g084480; N-truncated at Val49 (chloroplast transit peptide removed), residues 49-283, N-terminal Ser-Asn-Ala linker left, His6-tag cleaved with TEV; E. coli BL21 Gold; both PRA-CH and PRA-PH domains
T5 sequence (A0A072U2X9 entry or part of it H143E): as the sequence (A0A072U2X9 entry or part of it Y240T) above, with H95E, T192Y counted along it

[6] = biological target: T4, MtHISN2; test: ProFAR formation monitored at […] nm; assay type: biochemical
[7] = biological target: T6, MtHISN2 (Medicago truncatula, UniProt A0A072U2X9, S113A); test: isothermal titration calorimetry; assay type: binding
T6 construct: gene MTR_7g084480; N-truncated at Val49 (chloroplast transit peptide removed), residues 49-283, N-terminal Ser-Asn-Ala linker left, His6-tag cleaved with TEV; E. coli BL21 Gold; both PRA-CH and PRA-PH domains
T6 sequence (A0A072U2X9 entry or part of it S113A): as the sequence (A0A072U2X9 entry or part of it Y240T) above, with S65A, T192Y counted along it
Text: (§2) isothermal titration calorimetry on MtHISN2 | Four mutants within the PRA-CH domain (K109A, T112V, S113A, and H143E)

[8] = biological target: T7, MtHISN2 (Medicago truncatula, UniProt A0A072U2X9, K109A); test: isothermal titration calorimetry; assay type: binding
T7 construct: gene MTR_7g084480; N-truncated at Val49 (chloroplast transit peptide removed), residues 49-283, N-terminal Ser-Asn-Ala linker left, His6-tag cleaved with TEV; E. coli BL21 Gold; both PRA-CH and PRA-PH domains
T7 sequence (A0A072U2X9 entry or part of it K109A): as the sequence (A0A072U2X9 entry or part of it Y240T) above, with K61A, T192Y counted along it
Text: as §2

[9] = biological target: T8, MtHISN2 (Medicago truncatula, UniProt A0A072U2X9, T112V); test: isothermal titration calorimetry; assay type: binding
T8 construct: gene MTR_7g084480; N-truncated at Val49 (chloroplast transit peptide removed), residues 49-283, N-terminal Ser-Asn-Ala linker left, His6-tag cleaved with TEV; E. coli BL21 Gold; both PRA-CH and PRA-PH domains
T8 sequence (A0A072U2X9 entry or part of it T112V): as the sequence (A0A072U2X9 entry or part of it Y240T) above, with T64V, T192Y counted along it
Text: as §2

[10] = biological target: HISN2 enzyme from Medicago truncatula (MtHISN2), construct N-truncated at Val49 (Medicago truncatula); test: SEC; HiLoad Superdex 200 16/60; 25 mM Hepes-NaOH pH 7.5, 100 mM KCl, 50 mM NaCl, 100 uM ZnCl2, 1 mM TCEP; elution profile not shown

Molecule	Kd [1] [µM]	Kd [2] [µM]	Kd [3] [µM]	Kd [4] [µM]	Kd [5] [µM]	inhibition at 100 µM [6] [%]	Kd [7] [µM]	Kd [8] [µM]	Kd [9] [µM]	stoichiometry N [10]
Nc1ncnc2c1ncn2[C@@H]1O[C@H](COP(=O)(O)O)[C@@H](O)[C@H]1O [AMP]	52 ± 9	29 ± 3	31 ± 3	47 ± 6	68	> 60	64 ± 12	71 ± 18	75 ± 8	–
HISN2 enzyme from Medicago truncatula (MtHISN2), construct N-truncated at Val49	–	–	–	–	–	–	–	–	–	2
